The source made the active and inactive calls. The rule behind the calls is not given here.
Legend:
MDA-MB-231 [1] = test: Cell cycle arrest in human MDA-MB-231 cells assessed as accumulation of cells at G1 phase at 2 uM measured after 24 hrs by PI staining based flowcytometry method (reference value: 55.32%); type: functional
Histone deacetylase 1 [2] = biological target: T1, Histone deacetylase 1 (Homo sapiens, UniProt Q13547); details: Sf9, dose 10.0 nM, time 15.0 min
[3] = biological target: T2, ALK tyrosine kinase receptor (Homo sapiens, UniProt Q9UM73); test: Inhibition of ALK in human MDA-MB-231 cells assessed as inhibition of Akt phosphorylation at Ser473 residue measured after 24 hrs by Western blot assay; type: cell-based; details: dose 1-4 µM
[4] = system: ALK tyrosine kinase receptor (Homo sapiens), Q9UM73 [G1202R]; test: Potency index, ratio of ceritinib IC50 to test compound IC50 for inhibition of ALK G1202R mutant (unknown origin)
[5] = biological target: Histone deacetylase (Homo sapiens) (UniProt Q13547+O15379+Q9UBN7+Q92769+Q9UQL6+Q8WUI4+Q9BY41+Q96DB2+P56524+Q9UKV0+Q969S8); test: Inhibition of HDAC in human SH-SY5Y cells assessed as increase of intracellular acetylated histone H3 level at 1 to 4 uM measured after 24 hrs by Western blot assay; type: cell-based; details: dose 1-4 µM
Histone deacetylase 1 [6] = biological target: T1, Histone deacetylase 1; details: Sf9, dose 100.0 nM, time 15.0 min
[7] = biological target: T2, ALK tyrosine kinase receptor; test: Inhibition of ALK in human MDA-MB-231 cells assessed as inhibition of AKT phosphorylation at Ser473 residue at 4 uM measured after 24 hrs by Western blot assay; type: cell-based
MDA-MB-231 [8] = test: Induction of apoptosis in human MDA-MB-231 cells assessed as viable cells at 2 uM measured after 24 hrs by Annexin V-FITC/PI staining based flowcytometry (reference value: 93.14%); type: functional; details: read-out: Activity
MDA-MB-231 [9] = test: Induction of apoptosis in human MDA-MB-231 cells assessed as late apoptotic cells at 1 uM measured after 24 hrs by Annexin V-FITC/PI staining based flowcytometry ( Rvb = 5.28%); type: functional
SH-SY5Y = test: Induction of apoptosis in human SH-SY5Y cells assessed as viable cells at 4 uM measured after 24 hrs by Annexin V-FITC/PI staining based flowcytometry (reference value: 77.05%); type: functional; details: read-out: Activity
MDA-MB-231 [10] = test: Induction of apoptosis in human MDA-MB-231 cells assessed as late apoptotic cells at 2 uM measured after 24 hrs by Annexin V-FITC/PI staining based flowcytometry ( Rvb = 5.28%); type: functional

T2 sequence (Q9UM73 19-1620 limits assumed): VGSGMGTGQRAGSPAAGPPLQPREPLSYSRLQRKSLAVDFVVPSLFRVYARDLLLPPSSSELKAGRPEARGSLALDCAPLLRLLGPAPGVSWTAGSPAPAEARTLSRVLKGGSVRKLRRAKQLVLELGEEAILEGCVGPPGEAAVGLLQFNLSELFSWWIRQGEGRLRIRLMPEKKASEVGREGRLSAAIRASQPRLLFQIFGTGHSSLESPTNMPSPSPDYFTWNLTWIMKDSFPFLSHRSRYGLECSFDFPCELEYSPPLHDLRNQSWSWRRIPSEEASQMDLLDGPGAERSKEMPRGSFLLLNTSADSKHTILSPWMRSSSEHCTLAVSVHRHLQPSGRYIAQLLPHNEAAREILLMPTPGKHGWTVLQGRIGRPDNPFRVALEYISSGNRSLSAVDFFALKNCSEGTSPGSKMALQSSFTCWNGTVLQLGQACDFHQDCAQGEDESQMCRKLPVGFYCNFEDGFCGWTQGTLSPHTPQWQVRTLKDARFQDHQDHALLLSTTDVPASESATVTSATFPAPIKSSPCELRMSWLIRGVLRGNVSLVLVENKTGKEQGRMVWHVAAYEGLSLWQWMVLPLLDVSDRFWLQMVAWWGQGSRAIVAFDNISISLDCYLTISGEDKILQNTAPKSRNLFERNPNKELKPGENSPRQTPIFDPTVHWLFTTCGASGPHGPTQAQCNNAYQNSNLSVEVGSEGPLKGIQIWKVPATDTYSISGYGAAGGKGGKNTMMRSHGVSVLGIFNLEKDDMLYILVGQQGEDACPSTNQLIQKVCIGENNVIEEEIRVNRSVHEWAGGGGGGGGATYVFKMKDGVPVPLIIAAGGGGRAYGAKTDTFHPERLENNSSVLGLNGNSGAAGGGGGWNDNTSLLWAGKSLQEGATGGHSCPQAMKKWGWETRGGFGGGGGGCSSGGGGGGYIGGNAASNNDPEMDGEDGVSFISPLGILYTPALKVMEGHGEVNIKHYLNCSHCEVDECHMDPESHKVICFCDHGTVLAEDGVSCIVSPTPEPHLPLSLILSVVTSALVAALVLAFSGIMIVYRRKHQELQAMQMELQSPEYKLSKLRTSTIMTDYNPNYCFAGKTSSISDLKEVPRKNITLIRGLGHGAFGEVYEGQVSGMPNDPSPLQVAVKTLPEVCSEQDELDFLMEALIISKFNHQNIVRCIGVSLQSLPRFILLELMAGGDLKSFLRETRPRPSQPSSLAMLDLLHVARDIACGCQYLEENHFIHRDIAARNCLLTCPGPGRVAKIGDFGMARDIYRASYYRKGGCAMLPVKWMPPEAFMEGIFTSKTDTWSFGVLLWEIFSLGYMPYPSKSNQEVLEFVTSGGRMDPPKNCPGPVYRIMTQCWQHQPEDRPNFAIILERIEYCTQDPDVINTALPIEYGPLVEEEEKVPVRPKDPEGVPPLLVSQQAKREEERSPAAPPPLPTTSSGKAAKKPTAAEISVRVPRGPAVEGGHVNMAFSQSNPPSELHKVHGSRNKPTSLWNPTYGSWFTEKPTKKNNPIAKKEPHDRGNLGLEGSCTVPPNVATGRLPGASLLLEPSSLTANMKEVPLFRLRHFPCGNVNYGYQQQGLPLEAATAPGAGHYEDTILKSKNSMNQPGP
T1 sequence (Q13547 whole entry): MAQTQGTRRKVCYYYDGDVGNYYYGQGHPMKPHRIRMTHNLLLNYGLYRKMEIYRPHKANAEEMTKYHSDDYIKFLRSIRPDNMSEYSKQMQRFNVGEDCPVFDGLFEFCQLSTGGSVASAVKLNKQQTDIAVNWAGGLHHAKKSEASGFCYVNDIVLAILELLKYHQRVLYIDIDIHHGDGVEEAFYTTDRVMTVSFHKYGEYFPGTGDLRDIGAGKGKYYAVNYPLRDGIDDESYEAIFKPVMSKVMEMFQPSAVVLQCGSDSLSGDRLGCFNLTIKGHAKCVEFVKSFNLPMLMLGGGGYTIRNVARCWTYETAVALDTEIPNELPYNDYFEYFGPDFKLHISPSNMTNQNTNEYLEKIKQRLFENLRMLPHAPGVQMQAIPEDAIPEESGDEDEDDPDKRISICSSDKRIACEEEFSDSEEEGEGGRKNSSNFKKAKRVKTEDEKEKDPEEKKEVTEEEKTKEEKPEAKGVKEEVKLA
Sequence of ALK tyrosine kinase receptor (Homo sapiens), Q9UM73 [G1202R] (Q9UM73 whole entry G1202R): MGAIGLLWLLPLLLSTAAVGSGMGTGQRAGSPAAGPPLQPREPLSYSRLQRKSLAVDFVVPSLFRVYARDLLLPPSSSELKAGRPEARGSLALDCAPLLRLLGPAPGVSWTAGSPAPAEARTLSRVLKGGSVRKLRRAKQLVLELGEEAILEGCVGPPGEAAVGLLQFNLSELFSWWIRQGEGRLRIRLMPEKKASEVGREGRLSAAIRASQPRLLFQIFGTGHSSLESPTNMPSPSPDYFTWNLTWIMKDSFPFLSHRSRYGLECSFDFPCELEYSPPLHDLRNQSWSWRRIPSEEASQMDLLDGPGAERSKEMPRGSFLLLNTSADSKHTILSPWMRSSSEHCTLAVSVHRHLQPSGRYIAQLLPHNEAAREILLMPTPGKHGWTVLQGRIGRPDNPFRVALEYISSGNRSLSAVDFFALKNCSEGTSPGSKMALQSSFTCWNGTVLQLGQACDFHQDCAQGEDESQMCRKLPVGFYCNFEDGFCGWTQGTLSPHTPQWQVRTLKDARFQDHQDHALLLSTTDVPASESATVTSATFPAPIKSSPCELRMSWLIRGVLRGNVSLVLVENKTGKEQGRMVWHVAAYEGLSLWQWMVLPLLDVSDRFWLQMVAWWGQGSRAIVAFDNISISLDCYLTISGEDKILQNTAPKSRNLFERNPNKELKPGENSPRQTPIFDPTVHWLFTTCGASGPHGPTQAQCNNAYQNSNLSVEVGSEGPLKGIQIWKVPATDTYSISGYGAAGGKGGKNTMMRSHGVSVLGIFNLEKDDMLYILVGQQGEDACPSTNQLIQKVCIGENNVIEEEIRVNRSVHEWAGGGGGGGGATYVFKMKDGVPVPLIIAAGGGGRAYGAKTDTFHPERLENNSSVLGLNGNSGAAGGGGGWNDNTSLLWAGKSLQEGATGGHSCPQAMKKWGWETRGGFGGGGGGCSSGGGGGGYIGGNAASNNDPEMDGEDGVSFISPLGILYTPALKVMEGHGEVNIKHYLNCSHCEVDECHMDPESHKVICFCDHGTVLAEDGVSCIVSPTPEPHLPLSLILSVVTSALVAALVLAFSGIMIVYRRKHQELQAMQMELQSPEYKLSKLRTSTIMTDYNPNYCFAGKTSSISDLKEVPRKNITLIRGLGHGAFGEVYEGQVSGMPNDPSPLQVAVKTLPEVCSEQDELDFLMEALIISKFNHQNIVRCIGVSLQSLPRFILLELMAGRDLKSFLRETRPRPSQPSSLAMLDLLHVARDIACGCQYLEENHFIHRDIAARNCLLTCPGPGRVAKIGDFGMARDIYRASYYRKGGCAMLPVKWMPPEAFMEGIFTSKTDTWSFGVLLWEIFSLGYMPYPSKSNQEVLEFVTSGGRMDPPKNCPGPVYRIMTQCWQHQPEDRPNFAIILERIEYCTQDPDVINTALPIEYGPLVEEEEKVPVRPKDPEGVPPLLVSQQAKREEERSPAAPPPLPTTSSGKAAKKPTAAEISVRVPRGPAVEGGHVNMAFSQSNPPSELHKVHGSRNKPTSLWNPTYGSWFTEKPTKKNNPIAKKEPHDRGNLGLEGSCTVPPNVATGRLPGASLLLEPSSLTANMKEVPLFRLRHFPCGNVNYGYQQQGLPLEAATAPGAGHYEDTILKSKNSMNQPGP

SMILES: CC(C)S(=O)(=O)c1ccccc1Nc1nc(Nc2ccc(NC(=O)CCCCCCC(=O)NO)cc2)ncc1Cl
- Activity (MDA-MB-231 [1]): 32.53%
- inhibition (Histone deacetylase 1 [2]): 54%
- inhibition [3]: Dose-Dependent Effect
- Ratio IC50 [4]: 10
- inhibition [5]: Active
- inhibition (Histone deacetylase 1 [6]): 87%
- inhibition [7]: Active
- viability at 2 µM (MDA-MB-231 [8]): 85.1%
- Activity (MDA-MB-231 [9]): 8.79%
- viability at 4 µM (SH-SY5Y): 38.3%
- Activity (MDA-MB-231 [10]): 7.72%
